# According to article PMC4230905, “(S)-3-hydroxyacyl-CoA dehydrogenase/enoyl-CoA hydratase (FadB’) from fatty acid degradation operon of Ralstonia eutropha H16” (AMB Express, 2014):
# T1: FadB' ((S)-3-hydroxyacyl-CoA dehydrogenase/enoyl-CoA hydratase, H16_A0461; FadB'Re) (Cupriavidus necator, UniProt Q0KEG0)
# T1 construct: N-terminal His-tag (pCOLADuet-1::3HAD), expressed in E. coli BL21; monomer (87 kDa by gel filtration); N-terminal 3HCDH and C-terminal crotonase-like domain
# T1 sequence (Q0KEG0 1-807): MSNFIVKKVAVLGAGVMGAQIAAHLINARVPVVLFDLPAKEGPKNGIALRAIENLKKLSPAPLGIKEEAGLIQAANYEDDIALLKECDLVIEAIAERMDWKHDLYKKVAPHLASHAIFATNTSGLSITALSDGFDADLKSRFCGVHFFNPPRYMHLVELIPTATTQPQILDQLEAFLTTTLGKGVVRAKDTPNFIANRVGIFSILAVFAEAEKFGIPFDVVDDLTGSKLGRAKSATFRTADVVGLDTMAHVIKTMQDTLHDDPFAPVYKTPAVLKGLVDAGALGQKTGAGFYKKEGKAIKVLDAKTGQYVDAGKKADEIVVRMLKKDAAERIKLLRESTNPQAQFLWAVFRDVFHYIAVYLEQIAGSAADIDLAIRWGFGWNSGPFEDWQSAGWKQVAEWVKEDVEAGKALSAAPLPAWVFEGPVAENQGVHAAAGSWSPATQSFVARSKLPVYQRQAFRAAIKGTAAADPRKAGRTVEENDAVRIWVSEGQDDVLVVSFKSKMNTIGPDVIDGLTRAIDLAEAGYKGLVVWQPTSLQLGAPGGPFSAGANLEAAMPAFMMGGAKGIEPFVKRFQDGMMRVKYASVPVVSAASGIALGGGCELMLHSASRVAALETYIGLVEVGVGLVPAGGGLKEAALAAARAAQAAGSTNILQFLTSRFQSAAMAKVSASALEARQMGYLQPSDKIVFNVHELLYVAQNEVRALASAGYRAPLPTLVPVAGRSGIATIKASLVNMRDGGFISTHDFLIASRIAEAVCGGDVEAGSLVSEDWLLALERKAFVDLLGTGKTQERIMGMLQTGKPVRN
# B1: FadB' ((S)-3-hydroxyacyl-CoA dehydrogenase/enoyl-CoA hydratase, H16_A0461; FadB'Re) (Cupriavidus necator H16) (protein)
# chain: T1 sequence (Q0KEG0 1-807)
# notes: N-terminal His-tag (pCOLADuet-1::3HAD), expressed in E. coli BL21; monomer (87 kDa by gel filtration); N-terminal 3HCDH and C-terminal crotonase-like domain
# Assays:
# [1] = target: T1, FadB' ((S)-3-hydroxyacyl-CoA dehydrogenase/enoyl-CoA hydratase, H16_A0461; FadB'Re); experiment: coupled assay, acetoacetyl-CoA-Mg2+ complex formation at […] nm; type: biochemical; conditions: read-out: % inhibition at 0.1 mM (enoyl-CoA hydratase activity)
# [2] = target: T1, FadB' ((S)-3-hydroxyacyl-CoA dehydrogenase/enoyl-CoA hydratase, H16_A0461; FadB'Re); experiment: spectrophotometric NADH oxidation at […] nm; type: biochemical; conditions: read-out: % inhibition at 0.1 mM (3-hydroxyacyl-CoA dehydrogenase activity)
# purified protein = substrate: CC(=O)CC(=O)SCCNC(=O)CCNC(=O)[C@H](O)C(C)(C)COP(=O)(O)OP(=O)(O)OC[C@H]1O[C@@H](n2cnc3c(N)ncnc32)[C@H](O)[C@@H]1OP(=O)(O)O; experiment: purified protein; type: biochemical, Cupriavidus necator; conditions: 3-hydroxyacyl-CoA dehydrogenase activity (reduction direction), 0.2 mM NADH, 100 mM Tris-HCl pH 7, 30 °C, no acetyl-CoA added
Molecule,inhibition at 100 µM [1],inhibition at 100 µM [2],Km (purified protein)
CC(=O)SCCNC(=O)CCNC(=O)[C@H](O)C(C)(C)COP(=O)(O)OP(=O)(O)OC[C@H]1O[C@@H](n2cnc3c(N)ncnc32)[C@H](O)[C@@H]1OP(=O)(O)O [acetyl-CoA],70%,~50%,
CC(C)(COP(=O)(O)OP(=O)(O)OC[C@H]1O[C@@H](n2cnc3c(N)ncnc32)[C@H](O)[C@@H]1OP(=O)(O)O)[C@@H](O)C(=O)NCCC(=O)NCCS [CoA],30%,20%,
CCC(=O)SCCNC(=O)CCNC(=O)[C@H](O)C(C)(C)COP(=O)(O)OP(=O)(O)OC[C@H]1O[C@@H](n2cnc3c(N)ncnc32)[C@H](O)[C@@H]1OP(=O)(O)O [propionyl-CoA],~60%,,
B1,,,48 µM
